Reference: ChEMBL document CHEMBL1201862, “PubChem BioAssay data set” (2004)
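Growth conditions: 96-well plates. Treatment: test compound, 48 hours, 5 concentrations. Analysis: linear interpolation between bracketing concentrations; unreached endpoints set to highest concentration. Here, GI50 denotes the concentration required for 50% inhibition of growth.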 Activity calls are given as the source filed them. No stated cut-off is given here; in the data, active = GI50 up to about 1.1 µM and inactive = higher.

What was measured:
Assay in all cases: growth of human tumour cells (NCI), 48 h
SF-295 = tested on: SF-295
HOP-92 = tested on: HOP-92
SN12C = tested on: SN12C
HCC 2998 = tested on: HCC 2998
U-251 = tested on: U-251
M14 = tested on: M14
RPMI-8226 = tested on: RPMI-8226
SF-268 = tested on: SF-268
DU-145 = tested on: DU-145
UACC-62 = tested on: UACC-62
SR = tested on: SR
SNB-19 = tested on: SNB-19
SNB-75 = tested on: SNB-75
K562 = tested on: K562
SK-MEL-5 = tested on: SK-MEL-5
SW-620 = tested on: SW-620
PC-3 = tested on: PC-3
SF-539 = tested on: SF-539
HCT-116 = tested on: HCT-116
CAKI-1 = tested on: CAKI-1

Row | SMILES | GI50 (SF-295) | GI50 (HOP-92) | GI50 (SN12C) | GI50 (HCC 2998) | GI50 (U-251) | GI50 (M14) | GI50 (RPMI-8226) | GI50 (SF-268) | GI50 (DU-145) | GI50 (UACC-62) | GI50 (SR) | GI50 (SNB-19) | GI50 (SNB-75) | GI50 (K562) | GI50 (SK-MEL-5) | GI50 (SW-620) | GI50 (PC-3) | GI50 (SF-539) | GI50 (HCT-116) | GI50 (CAKI-1)
1 | CCOC(=O)c1sc2c(c1O)c(=O)n(-c1ccccc1)c(=S)n2-c1ccccc1 | 35.5 µM (inactive) | 86.1 µM (inactive) | 61.1 µM (inactive) | > 100 µM (inactive) | 76.6 µM (inactive) | > 100 µM (inactive) | 28.2 µM (inactive) | > 100 µM (inactive) | 71.8 µM (inactive) | 84.3 µM (inactive) | 10.8 µM (inactive) | > 100 µM (inactive) | 37.5 µM (inactive) | 42.8 µM (inactive) | > 100 µM (inactive) | 99.3 µM (inactive) | – | – | – | –
2 | CCCNC(=S)N/N=C/c1cccc(C)n1 | 32.8 µM (inactive) | 49 µM (inactive) | 29.2 µM (inactive) | 19.5 µM (inactive) | 21.9 µM (inactive) | 12.3 µM (inactive) | 24.3 µM (inactive) | – | – | 20.8 µM (inactive) | 15 µM (inactive) | – | – | 31.7 µM (inactive) | 31.7 µM (inactive) | – | 38.6 µM (inactive) | 25.2 µM (inactive) | 7.18 µM (inactive) | –
3 | CC(=O)c1[nH]c(Nc2ccc(C)cc2)c(C(=S)Nc2ccccc2)c1N | 17.8 µM (inactive) | 13 µM (inactive) | 18.8 µM (inactive) | 18.6 µM (inactive) | 14.4 µM (inactive) | 17.1 µM (inactive) | – | 14.5 µM (inactive) | 16.3 µM (inactive) | 16.2 µM (inactive) | 22.3 µM (inactive) | 16.8 µM (inactive) | 19.9 µM (inactive) | 9.31 µM (inactive) | 15.6 µM (inactive) | 28.4 µM (inactive) | – | 29.2 µM (inactive) | 16.7 µM (inactive) | 16.9 µM (inactive)
4 | COC(=O)c1cc2c3c(ccc2[nH]1)N(C(=O)c1cc2c4c(ccc2[nH]1)N(C(=O)c1cc2c5c(ccc2[nH]1)N(C(N)=O)CC5)CC4)CC3 | 3.12 µM (inactive) | 2.03 µM (inactive) | 2.97 µM (inactive) | 5.45 µM (inactive) | 2.17 µM (inactive) | 1.87 µM (inactive) | 7.89 µM (inactive) | 2.17 µM (inactive) | – | 0.845 µM (active) | 5.58 µM (inactive) | 2.61 µM (inactive) | 2.11 µM (inactive) | 2.44 µM (inactive) | 2.07 µM (inactive) | 7.85 µM (inactive) | – | 3.6 µM (inactive) | 2.24 µM (inactive) | 2 µM (inactive)
5 | COc1cc(C2(C)SCCCS2)cc(OC)c1OC | > 100 µM (inactive) | > 100 µM (inactive) | > 100 µM (inactive) | > 100 µM (inactive) | > 100 µM (inactive) | > 100 µM (inactive) | > 100 µM (inactive) | > 100 µM (inactive) | – | > 100 µM (inactive) | > 100 µM (inactive) | > 100 µM (inactive) | > 100 µM (inactive) | > 100 µM (inactive) | > 100 µM (inactive) | > 100 µM (inactive) | – | > 100 µM (inactive) | > 100 µM (inactive) | > 100 µM (inactive)
6 | CNC(C)Cc1ccccc1O (centres undefined) | > 100 µM (inactive) | > 100 µM (inactive) | > 100 µM (inactive) | > 100 µM (inactive) | > 100 µM (inactive) | > 100 µM (inactive) | > 100 µM (inactive) | > 100 µM (inactive) | – | > 100 µM (inactive) | > 100 µM (inactive) | > 100 µM (inactive) | > 100 µM (inactive) | > 100 µM (inactive) | > 100 µM (inactive) | > 100 µM (inactive) | – | > 100 µM (inactive) | > 100 µM (inactive) | > 100 µM (inactive)
7 | N#Cc1c(-c2ccc(Cl)cc2)c(C#N)c(=O)n(NS(=O)(=O)c2ccccc2)c1O | 30.1 µM (inactive) | 19.3 µM (inactive) | 13.6 µM (inactive) | 13.8 µM (inactive) | 32.7 µM (inactive) | 29.6 µM (inactive) | 6.44 µM (inactive) | 35.6 µM (inactive) | – | 15.1 µM (inactive) | – | 37 µM (inactive) | 34 µM (inactive) | 29.1 µM (inactive) | 17.1 µM (inactive) | 30.6 µM (inactive) | 19.6 µM (inactive) | 20.7 µM (inactive) | 16.2 µM (inactive) | 21 µM (inactive)
8 | N#Cc1c(N2CCN(c3ccc([N+](=O)[O-])cc3)CC2)[n+]([O-])c2ccc(-c3ccc([N+](=O)[O-])cc3)cc2[n+]1[O-] | 8.51 µM (inactive) | – | – | – | 1.25 µM (inactive) | 19.2 µM (inactive) | 5.02 µM (inactive) | > 100 µM (inactive) | 21.2 µM (inactive) | 18 µM (inactive) | – | 9.18 µM (inactive) | > 26.9 µM (inactive) | 5.26 µM (inactive) | 4.18 µM (inactive) | 35.2 µM (inactive) | 2.55 µM (inactive) | 38.7 µM (inactive) | 4.56 µM (inactive) | 5.35 µM (inactive)
9 | Cc1cccc(N2C(=O)/C(=C/c3ccc(N(CCC#N)CCC#N)cc3C)N=C2c2cc([N+](=O)[O-])ccc2Cl)c1 | > 100 µM (inactive) | > 100 µM (inactive) | > 100 µM (inactive) | > 100 µM (inactive) | > 100 µM (inactive) | > 100 µM (inactive) | > 100 µM (inactive) | > 100 µM (inactive) | – | > 100 µM (inactive) | > 100 µM (inactive) | > 100 µM (inactive) | > 100 µM (inactive) | 86.1 µM (inactive) | > 100 µM (inactive) | > 100 µM (inactive) | – | > 100 µM (inactive) | 85.7 µM (inactive) | 8.18 µM (inactive)
10 | O=C1Nc2c(Cl)cc(Cl)cc2/C1=N/NC(=O)c1ccccc1O | 14.9 µM (inactive) | 15 µM (inactive) | 16.7 µM (inactive) | 16.7 µM (inactive) | 8.51 µM (inactive) | 16.1 µM (inactive) | – | – | – | 12.1 µM (inactive) | 5.4 µM (inactive) | 14.4 µM (inactive) | 9.77 µM (inactive) | – | 14.8 µM (inactive) | 16.9 µM (inactive) | 14.8 µM (inactive) | 14.6 µM (inactive) | 13.6 µM (inactive) | 16.8 µM (inactive)
11 | CCCCCCCCCc1c(O)c(O)c(CCCCCCCCC)c(CCCCCCCCC)c1CCCCCCCCC | > 100 µM (inactive) | – | > 100 µM (inactive) | > 100 µM (inactive) | > 100 µM (inactive) | > 100 µM (inactive) | > 100 µM (inactive) | > 100 µM (inactive) | > 100 µM (inactive) | > 100 µM (inactive) | – | > 100 µM (inactive) | – | 65.9 µM (inactive) | > 100 µM (inactive) | > 100 µM (inactive) | > 100 µM (inactive) | > 100 µM (inactive) | > 100 µM (inactive) | > 100 µM (inactive)
12 | CC(C)(C)C(=O)N(C(=S)OCc1ccccn1)c1ccccc1 | – | – | 31.3 µM (inactive) | – | 42 µM (inactive) | 39.4 µM (inactive) | 12.2 µM (inactive) | 36.1 µM (inactive) | 38.6 µM (inactive) | 63 µM (inactive) | – | 59.6 µM (inactive) | – | 36.7 µM (inactive) | 20 µM (inactive) | 47.6 µM (inactive) | 35.2 µM (inactive) | 20.4 µM (inactive) | 23.1 µM (inactive) | 35.2 µM (inactive)
13 | CN1CC[C@]2(C)c3cc(O)ccc3CC3CCCC1C32C (some centres undefined) | > 100 µM (inactive) | > 100 µM (inactive) | > 100 µM (inactive) | 47.2 µM (inactive) | > 100 µM (inactive) | > 100 µM (inactive) | > 100 µM (inactive) | > 100 µM (inactive) | – | > 100 µM (inactive) | > 100 µM (inactive) | > 100 µM (inactive) | 92 µM (inactive) | > 100 µM (inactive) | > 100 µM (inactive) | > 100 µM (inactive) | – | > 100 µM (inactive) | > 100 µM (inactive) | > 100 µM (inactive)
14 | COC(=O)C1=Cc2cc(OC)c(OC)cc2[C@H](c2ccc(OC)c(OC)c2)C1C(=O)OC (some centres undefined) | > 100 µM (inactive) | 45.8 µM (inactive) | > 100 µM (inactive) | > 100 µM (inactive) | > 100 µM (inactive) | > 100 µM (inactive) | > 100 µM (inactive) | > 100 µM (inactive) | – | 98.9 µM (inactive) | > 100 µM (inactive) | > 100 µM (inactive) | > 100 µM (inactive) | > 100 µM (inactive) | > 100 µM (inactive) | > 100 µM (inactive) | – | 69.8 µM (inactive) | > 100 µM (inactive) | > 100 µM (inactive)
15 | CCCOc1ccc(/C=C/c2cc(OC)c(OC)c(OC)c2)cc1 | 0.185 µM (active) | 0.347 µM (active) | 0.635 µM (active) | 3.02 µM (inactive) | 0.384 µM (active) | 0.252 µM (active) | 0.456 µM (active) | 0.618 µM (active) | – | 0.215 µM (active) | 0.548 µM (active) | 0.681 µM (active) | 0.266 µM (active) | 0.0733 µM (active) | 0.144 µM (active) | 0.218 µM (active) | – | 0.269 µM (active) | 0.552 µM (active) | 0.209 µM (active)
16 | COc1cc([C@@H]2c3cc4c(cc3[C@@H](Nc3ccc(NC(=O)c5cc(NC(=O)c6cc([N+](=O)[O-])cn6C)cn5C)cc3)[C@H]3COC(=O)[C@H]23)OCO4)cc(OC)c1O | 1.57 µM (inactive) | 0.885 µM (active) | 3.73 µM (inactive) | 6.04 µM (inactive) | 10.3 µM (inactive) | 1.78 µM (inactive) | 0.0324 µM (active) | – | 0.374 µM (active) | 0.453 µM (active) | 0.0159 µM (active) | 15.8 µM (inactive) | 4.89 µM (inactive) | 0.0493 µM (active) | 0.188 µM (active) | 2.72 µM (inactive) | – | 0.364 µM (active) | 0.149 µM (active) | 0.323 µM (active)
